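A five-concentration, 48-hour dose response in 96-well plates underlies each endpoint, interpolated linearly between surrounding concentrations. GI50 = concentration required for 50% inhibition of growth. TGI is the concentration that stops growth completely.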
Columns and labels:
Experiment in all cases: growth of human tumour cells (NCI), 48 h
NCI/ADR-RES ovarian = tested on: NCI/ADR-RES ovarian
UACC-257 melanoma = tested on: UACC-257 melanoma
KM12 colon = tested on: KM12 colon
COLO 205 colon = tested on: COLO 205 colon
OVCAR-4 ovarian = tested on: OVCAR-4 ovarian
NCI-H23 lung = tested on: NCI-H23 lung
T-47D breast = tested on: T-47D breast
MDA-MB-435 = tested on: MDA-MB-435
SNB-75 CNS = tested on: SNB-75 CNS
HCT-15 colon = tested on: HCT-15 colon
MALME-3M melanoma = tested on: MALME-3M melanoma
A498 renal = tested on: A498 renal
SR leukemia = tested on: SR leukemia
UO-31 renal = tested on: UO-31 renal
SF-295 CNS = tested on: SF-295 CNS
SNB-19 CNS = tested on: SNB-19 CNS
DU-145 prostate = tested on: DU-145 prostate
IGROV1 ovarian = tested on: IGROV1 ovarian
M14 melanoma = tested on: M14 melanoma
SK-MEL-5 melanoma = tested on: SK-MEL-5 melanoma
HOP-92 NSCLC = tested on: HOP-92 NSCLC
HCT-116 colon = tested on: HCT-116 colon
HT29 colon = tested on: HT29 colon
K-562 leukemia = tested on: K-562 leukemia
ACHN renal = tested on: ACHN renal
786-0 renal = tested on: 786-0 renal
RPMI-8226 leukemia = tested on: RPMI-8226 leukemia
LOX IMVI melanoma = tested on: LOX IMVI melanoma
OVCAR-8 ovarian = tested on: OVCAR-8 ovarian
EKVX NSCLC = tested on: EKVX NSCLC
SW-620 colon = tested on: SW-620 colon
HCC-2998 colon = tested on: HCC-2998 colon
MOLT-4 leukemia = tested on: MOLT-4 leukemia
NCI-H522 lung = tested on: NCI-H522 lung
HS 578T breast = tested on: HS 578T breast
U251 CNS = tested on: U251 CNS
SN12C renal = tested on: SN12C renal
SK-MEL-2 melanoma = tested on: SK-MEL-2 melanoma
CAKI-1 renal = tested on: CAKI-1 renal
MCF7 breast = tested on: MCF7 breast
SK-MEL-28 melanoma = tested on: SK-MEL-28 melanoma
SF-268 CNS = tested on: SF-268 CNS
HL-60(TB) leukemia = tested on: HL-60(TB) leukemia
OVCAR-5 ovarian = tested on: OVCAR-5 ovarian
PC-3 prostate = tested on: PC-3 prostate
BT-549 breast = tested on: BT-549 breast
UACC-62 melanoma = tested on: UACC-62 melanoma
RXF 393 renal = tested on: RXF 393 renal
SF-539 CNS = tested on: SF-539 CNS
A549 NSCLC = tested on: A549 NSCLC
NCI-H460 lung = tested on: NCI-H460 lung
OVCAR-3 ovarian = tested on: OVCAR-3 ovarian
CCRF-CEM leukemia = tested on: CCRF-CEM leukemia
MDA-MB-231 breast = tested on: MDA-MB-231 breast
SK-OV-3 ovarian = tested on: SK-OV-3 ovarian
HOP-62 NSCLC = tested on: HOP-62 NSCLC
NCI-H226 lung = tested on: NCI-H226 lung
TK-10 renal = tested on: TK-10 renal

CC(C)(C)Nc1nc2c(OCCc3ccccc3)cccn2c1-c1ccccc1Cl
GI50 (NCI/ADR-RES ovarian): 6.4 µM | TGI (NCI/ADR-RES ovarian): 20.5 µM | GI50 (UACC-257 melanoma): 3.52 µM | TGI (UACC-257 melanoma): 13 µM | GI50 (KM12 colon): 3.58 µM | TGI (KM12 colon): 12.4 µM | GI50 (COLO 205 colon): 3.49 µM | TGI (COLO 205 colon): 10.6 µM | GI50 (OVCAR-4 ovarian): 3.61 µM | TGI (OVCAR-4 ovarian): 14.9 µM | GI50 (NCI-H23 lung): 3.67 µM | TGI (NCI-H23 lung): 13.8 µM | GI50 (T-47D breast): 2.35 µM | TGI (T-47D breast): 17.1 µM | GI50 (MDA-MB-435): 3.29 µM | TGI (MDA-MB-435): 11.2 µM | GI50 (SNB-75 CNS): 1.58 µM | TGI (SNB-75 CNS): 13.9 µM | GI50 (HCT-15 colon): 4.12 µM | TGI (HCT-15 colon): 15.9 µM | GI50 (MALME-3M melanoma): 2.23 µM | TGI (MALME-3M melanoma): 5.52 µM | GI50 (A498 renal): 11.8 µM | TGI (A498 renal): 24.3 µM | GI50 (SR leukemia): 3.89 µM | TGI (SR leukemia): 43.4 µM | GI50 (UO-31 renal): 3.2 µM | TGI (UO-31 renal): 16.8 µM | GI50 (SF-295 CNS): 3.19 µM | TGI (SF-295 CNS): 12.6 µM | GI50 (SNB-19 CNS): 3.35 µM | TGI (SNB-19 CNS): 13.1 µM | GI50 (DU-145 prostate): 7.9 µM | TGI (DU-145 prostate): 24.6 µM | GI50 (IGROV1 ovarian): 5.05 µM | TGI (IGROV1 ovarian): 17.8 µM | GI50 (M14 melanoma): 3.9 µM | TGI (M14 melanoma): 15.3 µM | GI50 (SK-MEL-5 melanoma): 2.01 µM | TGI (SK-MEL-5 melanoma): 4.43 µM | GI50 (HOP-92 NSCLC): 2.36 µM | TGI (HOP-92 NSCLC): 7.93 µM | GI50 (HCT-116 colon): 4.01 µM | TGI (HCT-116 colon): 15.3 µM | GI50 (HT29 colon): 4.62 µM | TGI (HT29 colon): 30.1 µM | GI50 (K-562 leukemia): 3.25 µM | TGI (K-562 leukemia): 18.1 µM | GI50 (ACHN renal): 8.82 µM | TGI (ACHN renal): 21 µM | GI50 (786-0 renal): 4.84 µM | TGI (786-0 renal): 18.1 µM | GI50 (RPMI-8226 leukemia): 2.78 µM | TGI (RPMI-8226 leukemia): 7.5 µM | GI50 (LOX IMVI melanoma): 4.08 µM | TGI (LOX IMVI melanoma): 15.8 µM | GI50 (OVCAR-8 ovarian): 4.36 µM | TGI (OVCAR-8 ovarian): 20 µM | GI50 (EKVX NSCLC): 3.19 µM | TGI (EKVX NSCLC): 12.8 µM | GI50 (SW-620 colon): 4.91 µM | TGI (SW-620 colon): 17.7 µM | GI50 (HCC-2998 colon): 3.51 µM | TGI (HCC-2998 colon): 12.5 µM | GI50 (MOLT-4 leukemia): 3.63 µM | TGI (MOLT-4 leukemia): 17 µM | GI50 (NCI-H522 lung): 3.75 µM | TGI (NCI-H522 lung): 15.3 µM | GI50 (HS 578T breast): 4.05 µM | TGI (HS 578T breast): 21.4 µM | GI50 (U251 CNS): 3.14 µM | TGI (U251 CNS): 12.5 µM | GI50 (SN12C renal): 3.03 µM | TGI (SN12C renal): 12.7 µM | GI50 (SK-MEL-2 melanoma): 2.72 µM | TGI (SK-MEL-2 melanoma): 8.33 µM | GI50 (CAKI-1 renal): 5.89 µM | TGI (CAKI-1 renal): 20.2 µM | GI50 (MCF7 breast): 3.35 µM | TGI (MCF7 breast): 14.7 µM | GI50 (SK-MEL-28 melanoma): 3.45 µM | TGI (SK-MEL-28 melanoma): 13.1 µM | GI50 (SF-268 CNS): 4.52 µM | TGI (SF-268 CNS): 18.8 µM | GI50 (HL-60(TB) leukemia): 2.42 µM | TGI (HL-60(TB) leukemia): 5.68 µM | GI50 (OVCAR-5 ovarian): 11.9 µM | TGI (OVCAR-5 ovarian): 24.7 µM | GI50 (PC-3 prostate): 3.37 µM | TGI (PC-3 prostate): 15.5 µM | GI50 (BT-549 breast): 2.61 µM | TGI (BT-549 breast): 10.2 µM | GI50 (UACC-62 melanoma): 2.22 µM | TGI (UACC-62 melanoma): 6.55 µM | GI50 (RXF 393 renal): 9.26 µM | TGI (RXF 393 renal): 22.3 µM | GI50 (SF-539 CNS): 10.7 µM | TGI (SF-539 CNS): 22.5 µM | GI50 (A549 NSCLC): 4.88 µM | TGI (A549 NSCLC): 27.1 µM | GI50 (NCI-H460 lung): 3.76 µM | TGI (NCI-H460 lung): 13.4 µM | GI50 (OVCAR-3 ovarian): 2.93 µM | TGI (OVCAR-3 ovarian): 9.75 µM | GI50 (CCRF-CEM leukemia): 3.56 µM | TGI (CCRF-CEM leukemia): 16 µM | GI50 (MDA-MB-231 breast): 5.95 µM | TGI (MDA-MB-231 breast): 19 µM | GI50 (SK-OV-3 ovarian): 3.82 µM | TGI (SK-OV-3 ovarian): 16.9 µM | GI50 (HOP-62 NSCLC): 4.82 µM | TGI (HOP-62 NSCLC): 18.9 µM | GI50 (NCI-H226 lung): 3.52 µM | TGI (NCI-H226 lung): 16.6 µM | GI50 (TK-10 renal): 6.49 µM | TGI (TK-10 renal): 20.4 µM

Reference: PubChem BioAssay (NCI)
